According to US20240245705A1, “ORALLY ADMINISTERED COMBINATIONS OF AMOXICILLIN AND AVIBACTAM DERIVATIVES FOR TREATING MYCOBACTERIAL INFECTIONS” (Arixa Pharmaceuticals, Inc., priority 2019, published 2024):
Counter-ions that a name gives are not always drawn.

Tests used:
[1] = Single ascending dose phase 1 study: pharmacokinetics of avibactam after oral avibactam derivative (3) in healthy human volunteers; type: in vivo; conditions: following oral administration of avibactam derivative (3)
Method: The pharmacokinetics of avibactam provided as an orally administered avibactam derivative was determined on healthy human volunteers.
A randomized, double-blind, placebo-controlled single ascending dose phase 1 study was undertaken with healthy male and female adults. Three cohorts, each comprising 10 patients received a single oral dose of 300 mg, 900 mg, or 1,350 mg avibactam derivative (3) (ethyl 3-(((((1R,2S,5R)-2-carbamoyl-7-oxo-1,6-diazabicyclo[3.2.1]octan-6-yl)oxy)sulfonyl)oxy)-2,2-dimethylpropanoate) under fed conditions as a suspension of 10 mg/mL (n=8) or placebo (n−2).
Plasma and urine PK samples were collected prior to dosing and at frequent intervals after dosing.

[2] = Avibactam oral bioavailability in humans; type: in vivo; conditions: human patients, oral avibactam derivative
Excerpt: Avibactam derivatives, when orally administered, provide an enhanced oral bioavailability of the β-lactamase inhibitor compared to the oral bioavailability of the parent β-lactamase inhibitor. […] The oral bioavailability of avibactam in a human is about 7%.

[3] = human, avibactam itself given orally; cited from earlier work

SMILES	clearance of avibactam in the systemic compartment [1]	avibactam oral bioavailability [2]	oral bioavailability of avibactam [3]
CCOC(=O)C(C)(C)COS(=O)(=O)ON1C(=O)N2C[C@H]1CC[C@H]2C(N)=O [avibactam derivative (3), ethyl 3-(((((1R,2S,5R)-2-carbamoyl-7-oxo-1,6-diazabicyclo[3.2.1]octan-6-yl)oxy)sulfonyl)oxy)-2,2-dimethylpropanoate]	rapid clearance	greater than 50 % F	–
NC(=O)[C@@H]1CC[C@@H]2CN1C(=O)N2OS(=O)(=O)O [avibactam, [2S,5R]-2-carbamoyl-7-oxo-1,6-diazabicyclo[3.2.1]octan-6-yl hydrogen sulfate]	–	–	about 7%
